In ChEMBL document CHEMBL1122884, “Syntheses and complement inhibitory activities of 4-(2-phenyl-1H-indol-3-yl)cyclohexane-1-carboxylic acids” (J Med Chem, 1985):

Columns and labels:
[1] = organism: Homo sapiens; assay: In vitro inhibitory activity against human classical complement pathway; assay type: functional
[2] = system: Cavia porcellus; assay: Inhibition dose of the Reverse Passive Arthus Reaction (RPAR) in guinea pig after intravenous administration at a dose 80 mg/kg; assay type: functional

| IC50 [1] | Structure (SMILES) | inhibition in vivo at 80 mg/kg [2] |
| --- | --- | --- |
| 105 µM | O=C(O)c1ccc(-c2c(-c3ccccc3)[nH]c3ccccc23)cc1 | – |
| 135 µM | O=C(O)C1CC=C(c2c(-c3ccccc3)[nH]c3ccccc23)CC1 (stereo not drawn) | 64% |
